These results are taken from US20160340659A1, “ACTIN BINDING PEPTIDES AND COMPOSITIONS COMPRISING SAME FOR INHIBITING ANGIOGENESIS AND TREATING MEDICAL CONDITIONS ASSOCIATED WITH SAME” (YISSUM RESEARCH AND DEVELOPMENT COMPANY OF THE HEBREW …, priority 2014, published 2016).

One assay deals with actin (Oryctolagus cuniculus, UniProt P68135). Put plainly: Actin binding solid phase assay. As to conditions: immobilized actin, 0-500 ng/100 μl well. On the procedure:
96-well plates (MaxiSorp® flat-bottom 96-well plate, Fisher Scientific Inc., Fair Lawn, N.J.) were coated with 500 ng actin in 100 μl carbonate-bicarbonate buffer (pH 9.5) for 1 h at 37° C. The plate was washed once with TBS and then blocked with 3% BSA in 200 μl TBS buffer at 37° C., for 1 h. Wells were then washed once with 250 μl TBS. trT2-49, trT2-49m or each of the 29 peptides were added at 1:2 dilutions in 100 μl TBS, starting from 500 ng/well, incubated for 1 h at 37° C. and then washed three times with TBS containing 0.1% Tween-20 (TBST). Each well was then treated with 100 μl rabbit anti-trT2-49 diluted 1:500 in TBS and incubated for 1 h at 37° C. The wells were washed three times with TBST and then incubated with 100 μl goat anti-rabbit IgG-HRP (Jackson ImmunoResearch, West Grove, Pa.) diluted 1:10,000 in TBS, for 1 h at 37° C. Wells were then washed twice with TBST, and once with TBS before 100 μl substrate (1-step Ultra TMB-ELISA, Pierce, Fisher Scientific Inc.) were added. Absorbance at 655 nm was measured 10 min thereafter using a Power Wave 200 Microplate Scanning Spectrophotometer (Bio-Tek Instrument, Winooski, Vt.). Affinity was evaluated by double reciprocal plotting.

The subject of the next assay is HUVEC. Kind of assay: HUVEC tube formation assay on Matrigel. It counts as cell-based, human. As to conditions: peptides at 2 μM, compared to Control; for inhibition of VEGF-induced tube formation: 1 μg/ml VEGF; for inhibition of angiogenin-induced tube formation: 1 μg/ml angiogenin. On the procedure: FIGS. 6A-6D illustrate in-vitro inhibition of angiogenesis in the HUVEC model by T2 peptides. HUVEC cells plated on Matrigel™ were exposed to 2 μM of T2 peptides A103-Q159 (SEQ ID NO: 60), K108-K133 (SEQ ID NO: 57) or K108-L123 (SEQ ID NO: 67), in addition to 1 μg/ml of angiogenin or VEGF as the angiogenic agent, as indicated. Control wells received PBS. FIG. 6B-Results were assessed by imaging software, and quantified, and expressed relative to tube formation with angiogenin or VEGF alone (100%) Column 1=angiogenin, column 2=angiogenin+SEQ ID NO: 60, column 3=angiogenin+SEQ ID NO: 57, column 4=angiogenin+[…], Column 5=VEGF, column 6=VEGF+SEQ ID NO: 60, column 7=VEGF+SEQ ID NO: 57, column 8=VEGF+[…]. FIGS. 6C and 6D illustrate the inhibitory effect of truncated human T2 polypeptide trT2-49m (SEQ ID NO: 129) on angiogenin and VEGF induced HUVEC tube formation. Note the significant inhibition of HUVEC tube formation by all of the T2 peptides assayed, and in particular, K108-K133 (SEQ ID NO: 57);
HUVEC (CC-2519)(fresh or commercially provided) are maintained in M199 rrrediurn supplemented with 20% FCS, 1% glutamine, 1% antibiotic-antimycotic solution, ECGF, and heparin, plated in a 96-well plate (14×10^3 cells/well) previously coated with growth factor-depleted Matrigel™ (BD Biosciences), in M199 medium containing 5% FCS and 0.005% ECGF. The wells are supplemented with candidate T2 RNase peptides or PBS, and angiogenic growth factors (1 μg/ml angiogenin, bFGF or VEGF) to a final volume of 120 pl. Plates are incubated (overnight), photographed and the extent of tube formation (angiogenesis) assessed.

The target in assay [1] is T1, G-Actin from rabbit muscle (Oryctolagus cuniculus, UniProt P68135).
T1 construct: G-Actin from rabbit muscle; purchased Sigma-Aldrich, St Louis, Mo; host or cells: rabbit muscle (tissue-derived)
Put plainly: ELISA actin binding assay (solid-phase, immobilized actin). To be noted: immobilized G-actin 500 ng/well. On the procedure: Peptides corresponding to a variety of amino acid sequences in the region of human RNASET2 comprising helix 5 and helix 6 were synthesized and assayed for actin binding in an ELISA actin binding assay.
Solid-phase ELISA for RNASET2 peptide binding to immobilized actin was performed as modified from Mejean 1987 (Biochem. J. 244: 571-577) and Mejean 1992 (Eur. J Biochem. 209: 555-562). All steps were conducted at 37° C. Immuno-96 Microwell™ solid plates (Thermo Fisher Scientific, MA) coated with 500 ng/well of G-Actin from rabbit muscle (Sigma-Aldrich, St Louis, Mo.) in 100 ul of 0.05 M carbonate buffer, pH 9.5 (Sigma-Aldrich, Mo), incubated for 1 h and washed with 250 ul/well Tris Buffered Saline (TBS) (Sigma-Aldrich). The wells were blocked with 3% bovine serum albumin (BSA, Sigma-Aldrich) in 200 ul/well TBS for another 1 hour and washed with 250 ul/well TBS. The candidate peptides are then added at various concentrations (for example, serial dilutions giving 500, 250 or 125 ng/well) in 100 ul/well Tris Buffered Saline (TBS), incubated for 1 hour and washed 3 times with 250 ul/well TBS containing 0.05% Tween®20 (TBST, Sigma-Aldrich). Anti-T2 RNase (rabbit anti-rhtrRNASET2, Anilab, Israel, whole serum or antiserum) was then added, incubated for 1 hour and the plates washed 3 times with 250 ul/well TBST. Labeled second antibody [peroxidase-conjugated affinity pure goat-anti rabbit IgG (Jackson, Pa.)] was added at a dilution of 1:10:000 in 100 ul/well TBS, incubated for 1 hour and the plates washed twice with 250 ul/well TBST. After an additional wash with 250 ul/well TBS, 1-Step Ultra TMB-ELISA (TMB-3,3′,5,5′ Tetramethylbenzidine) (Thermo-Scientific) was added (100 ul/well) and after 15-25 min of incubation, the reaction was read at A650 using Infinite F50-TECAN ELISA READER (TECAN, Austria). Each assay was performed in triplicates.

The subject of assay [2] is chick Chorio-Allantoic Membrane (CAM). Put plainly: Ex ovo CAM angiogenesis assay. As to conditions: 3 μg on paper disk daily for four days from day 8; compared to PBS control. In kind it is in vivo, chicken. On the procedure: In this assay, in-vivo angiogenesis is assessed on live chick embryos grown in petri dishes. Fertilized eggs are cracked into a petri dish after a few (e.g. 3) days incubation at appropriate temperature (e.g. 37° C.) and humidity. In the following days, the embryos developed a vascular network, which can then easily be exposed to any treatment or combination of treatments, for example, via delivery onto absorbent disks placed on/about the developing vascular regions. Angiogenesis is scored by periodically (e.g. 1×/day, 2×/day, 1×/2 days, 1×/4 days, etc) counting the number of blood vessels around the disk.
Fertilized chicken eggs were incubated horizontally at 37° C. and humidity of 60-62% and cracked into Petri dishes at embryonic day 4. Incubation was continued under the same conditions. […] Treatment was given every day for four days, then, the number of blood vessels around the treated disks was counted.

“Also recorded” adds a separate entry of the source. Where no end group is shown, it is not given here.

Regarding “ALNSQKKYFGRSLELYRELDLNSVLLKLGIKPSINYYQVADFKDALARVYGVIPKIQ [SEQ ID NO: 60]”, on actin (listed as A103-Q159), the “actin binding in solid-phase assay” value is “most effective actin binding peptides amongst the 29 candidate peptides; also recorded: effective and concentration-dependent binding of actin”. In the assay with HUVEC, the “inhibition of VEGF-induced tube formation” value is on record as ~40% and the “inhibition of angiogenin-induced tube formation” value was ~40%. In addition, in assay [1], the “actin binding on ELISA” value is “strong”. In addition, the “inhibition of angiogenesis (number of blood vessels around disk)” value in assay [2] is reported as “effective in inhibiting angiogenesis”.
In the case of “KKYFGRSLELYRELDLNSVLLKLGIK [SEQ ID NO: 57, 26-amino acid peptide representing amino acids 108-133 of RNASET2]”, at actin (listed as K108-K133), the “actin binding in solid-phase assay” value was “most effective actin binding peptides amongst the 29 candidate peptides; also recorded: effective and concentration-dependent binding of actin”. Further, in the assay with HUVEC, the “inhibition of VEGF-induced tube formation” value is reported as ~75% and the “inhibition of angiogenin-induced tube formation” value is ~50%. Also, in assay [1], the “actin binding on ELISA” value is on record as “strong actin binding”. In assay [2], the “inhibition of angiogenesis (number of blood vessels around disk)” value is given as “effective in inhibiting angiogenesis”.
